Measured values reported in the supplement of paper PMC10307832.

Tests used:
Experiment in all cases: relative viability (nuclei count vs DMSO), 5 days (fraction); higher = more cells survive
AZ3146 + Dasatinib = compound: CN1CCC(CC1)OC2=CC(=C(C=C2)NC3=NC=C4C(=N3)N(C(=O)N4C)C5CCCC5)OC [AZ3146] + Cc1nc(Nc2ncc(C(=O)Nc3c(C)cccc3Cl)s2)cc(N2CCN(CCO)CC2)n1 [Dasatinib] (partner 0.075 µM)
Procedure, shortened: (§1)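 Relative viability was taken as the ratio of nuclei in treated wells to nuclei in vehicle wells. Lung cancer cell lines in 1536-well plates received compounds by pin tool one day after seeding, either one drug alone or a fixed anchor-drug dose plus five library-drug doses (not always all listed) in √10 steps. Nuclei were counted on 4× images after 5 days of treatment, and values are medians of duplicate plates.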

GSK-J4 + Lapatinib = compound: CCOC(=O)CCNc1cc(N2CCc3ccccc3CC2)nc(-c2ccccn2)n1 [GSK-J4] + CS(=O)(=O)CCNCc1ccc(-c2ccc3ncnc(Nc4ccc(OCc5cccc(F)c5)c(Cl)c4)c3c2)o1 [Lapatinib] (partner 2 µM)
Procedure, shortened: as §1

AZ3146 + Luminespib = compound: CN1CCC(CC1)OC2=CC(=C(C=C2)NC3=NC=C4C(=N3)N(C(=O)N4C)C5CCCC5)OC [AZ3146] + CCNC(=O)c1noc(-c2cc(C(C)C)c(O)cc2O)c1-c1ccc(CN2CCOCC2)cc1 [Luminespib] (partner 0.01 µM)
Procedure, shortened: as §1

GSK-J4 + Navitoclax = compound: CCOC(=O)CCNc1cc(N2CCc3ccccc3CC2)nc(-c2ccccn2)n1 [GSK-J4] + CC1(C)CCC(c2ccc(Cl)cc2)=C(CN2CCN(c3ccc(C(=O)NS(=O)(=O)c4ccc(N[C@H](CCN5CCOCC5)CSc5ccccc5)c(S(=O)(=O)C(F)(F)F)c4)cc3)CC2)C1 [Navitoclax] (partner 0.5 µM)
Procedure, shortened: as §1

| Cell Line | relative viability (AZ3146 + Dasatinib; first compound 0.08 µM) | relative viability (AZ3146 + Dasatinib; first compound 0.253 µM) | relative viability (AZ3146 + Dasatinib; first compound 0.8 µM) | relative viability (AZ3146 + Dasatinib; first compound 2.53 µM) | relative viability (AZ3146 + Dasatinib; first compound 8 µM) | relative viability (GSK-J4 + Lapatinib; first compound 0.5 µM) | relative viability (GSK-J4 + Lapatinib; first compound 1.581 µM) | relative viability (GSK-J4 + Lapatinib; first compound 5 µM) | relative viability (GSK-J4 + Lapatinib; first compound 15.81 µM) | relative viability (GSK-J4 + Lapatinib; first compound 50 µM) | relative viability (AZ3146 + Luminespib; first compound 0.08 µM) | relative viability (AZ3146 + Luminespib; first compound 0.253 µM) | relative viability (AZ3146 + Luminespib; first compound 0.8 µM) | relative viability (AZ3146 + Luminespib; first compound 2.53 µM) | relative viability (AZ3146 + Luminespib; first compound 8 µM) | relative viability (GSK-J4 + Navitoclax; first compound 0.5 µM) | relative viability (GSK-J4 + Navitoclax; first compound 1.581 µM) | relative viability (GSK-J4 + Navitoclax; first compound 5 µM) | relative viability (GSK-J4 + Navitoclax; first compound 15.81 µM) | relative viability (GSK-J4 + Navitoclax; first compound 50 µM) |
| --- | --- | --- | --- | --- | --- | --- | --- | --- | --- | --- | --- | --- | --- | --- | --- | --- | --- | --- | --- | --- |
| NCI-H1563 | 0.482 | 0.48 | 0.441 | 0.422 | 0.448 | 0.821 | 0.621 | 0.784 | 0.834 | 0.892 | 0.465 | 0.525 | 0.477 | 0.51 | 0.511 | – | – | – | – | – |
| SK-MES-1 | 0.42 | 0.311 | 0.387 | 0.316 | 0.258 | 0.452 | 0.495 | 0.459 | 0.392 | 0.421 | 0.657 | 0.581 | 0.769 | 0.847 | 0.585 | 1.13 | 1.03 | 1.25 | 1.01 | 0.857 |
| SW 1573 | 0.557 | 0.637 | 0.505 | 0.357 | 0.117 | 1.05 | 1.05 | 0.728 | 0.865 | 1.02 | 0.699 | 0.14 | 0.393 | 0.204 | 0.273 | 0.941 | 1.1 | 0.951 | 0.823 | 0.705 |
| NCI-H2347 | 0.303 | 0.248 | 0.294 | 0.316 | 0.379 | 0.841 | 0.573 | 0.753 | 0.963 | 0.664 | 0.375 | 0.298 | 0.551 | 0.53 | 0.644 | 0.7 | 0.746 | 0.774 | 0.829 | 0.608 |
